From ChEMBL document CHEMBL1155037, “BACE1 inhibitory effects of lavandulyl flavanones from Sophora flavescens” (Bioorg Med Chem, 2008)
Calls of active or inactive are those of the source. The rule behind the calls is not given here.

Assays:
Beta-secretase 1 [1] = target: T1, Beta-secretase 1 (Homo sapiens, UniProt P56817); assay: Inhibition of human BACE1 expressed in HEK293 cells assessed as reduction in soluble APPalpha level after 4 hrs by Western blot analysis; assay type: cell-based
Beta-secretase 1 [2] = target: T1, Beta-secretase 1; assay: Inhibition of human BACE1 expressed in HEK293 cells assessed as reduction in soluble APPbeta level after 4 hrs by Western blot analysis; assay type: cell-based; design: concentration or dose not given beside the values
Beta-secretase 1 [3] = target: T1, Beta-secretase 1; assay: Inhibition of human BACE1

T1 sequence (P56817 whole entry): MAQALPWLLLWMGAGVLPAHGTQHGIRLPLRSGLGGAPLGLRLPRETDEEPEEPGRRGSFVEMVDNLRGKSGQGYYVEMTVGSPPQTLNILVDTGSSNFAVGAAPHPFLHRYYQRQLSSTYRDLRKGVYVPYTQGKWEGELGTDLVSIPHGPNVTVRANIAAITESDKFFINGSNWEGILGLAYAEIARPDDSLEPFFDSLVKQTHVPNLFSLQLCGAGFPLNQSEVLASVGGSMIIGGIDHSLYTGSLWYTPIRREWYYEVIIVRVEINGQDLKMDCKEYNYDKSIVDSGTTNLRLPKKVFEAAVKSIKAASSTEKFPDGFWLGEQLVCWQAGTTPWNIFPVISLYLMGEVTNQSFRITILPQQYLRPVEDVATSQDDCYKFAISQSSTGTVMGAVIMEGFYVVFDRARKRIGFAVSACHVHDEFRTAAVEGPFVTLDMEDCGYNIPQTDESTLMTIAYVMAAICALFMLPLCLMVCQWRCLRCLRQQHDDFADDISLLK

Compound	Activity (Beta-secretase 1 [1])	Activity (Beta-secretase 1 [2]) [%]	IC50 (Beta-secretase 1 [3]) [µM]	Ki (Beta-secretase 1 [3]) [µM]
C=C(C)[C@H](CC=C(C)C)Cc1c(O)cc(OC)c2c1O[C@H](c1ccc(O)cc1OC)CC2=O	Active	51.1	6.7	10.6
COc1cc(O)c(CC=C(C)C)c2c1C(=O)CC(c1ccc(O)cc1)O2 (stereo not drawn) [ISOXANTHOHUMOL]			27.7	
C=C(C)[C@H](CCC(C)(C)O)Cc1c(O)cc(OC)c2c1O[C@H](c1ccc(O)cc1O)CC2=O [KURARINOL]			39.2	
C=C(C)C(CC=C(C)C)Cc1c(O)cc(OC)c2c1O[C@H](c1ccc(O)cc1O)CC2=O (stereo partly drawn) [KURARINONE]	Active	51.9	3.3	7.2

Further lines, results first:

Activity (Beta-secretase 1 [1])	Activity (Beta-secretase 1 [2]) [%]	IC50 (Beta-secretase 1 [3]) [µM]	Ki (Beta-secretase 1 [3]) [µM]	Compound
Active	61.8	2.6	3	C=C(C)[C@H](CC=C(C)C)Cc1c(O)cc(O)c2c1O[C@H](c1ccccc1O)CC2=O [KUSHENOL A]
		36.8		C=C(C)[C@H](CCC(C)(C)O)Cc1c(O)cc(O)c2c1O[C@H](c1ccccc1O)CC2=O [KUSHENOL T]
Dose-dependent effect	40.7	8.4	3.9	C=C(C)[C@H](CC=C(C)C)Cc1c(O)cc(O)c2c1O[C@H](c1ccc(O)cc1OC)CC2=O [LEACHIANONE A]
Active	56	5.2	1.1	C=C(C)[C@H](CC=C(C)C)Cc1c(O)cc(O)c2c1O[C@H](c1ccc(O)cc1O)CC2=O [SOPHORAFLAVANONE G]
